Reference: PubChem BioAssay (NCI)
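Growth conditions: 96-well plates. Treatment: test compound, 48 hours, 5 concentrations. Analysis: linear interpolation between bracketing concentrations; unreached endpoints set to highest concentration. GI50 is the concentration that inhibits growth by half. TGI denotes the concentration required for complete inhibition of growth.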

Experiments:
Experiment in all cases: NCI-60 cell line screen, 48 h
[1] = tested on: 786-0 renal
[2] = tested on: A498 renal
[3] = tested on: A549 NSCLC
[4] = tested on: ACHN renal
[5] = tested on: BT-549 breast
[6] = tested on: CAKI-1 renal
[7] = tested on: CCRF-CEM leukemia
[8] = tested on: COLO 205 colon
[9] = tested on: DU-145 prostate
[10] = tested on: EKVX NSCLC
[11] = tested on: HCC-2998 colon
[12] = tested on: HCT-116 colon
[13] = tested on: HCT-15 colon
[14] = tested on: HL-60(TB) leukemia
[15] = tested on: HOP-62 NSCLC
[16] = tested on: HOP-92 NSCLC
[17] = tested on: HS 578T breast
[18] = tested on: HT29 colon
[19] = tested on: IGROV1 ovarian
[20] = tested on: K-562 leukemia
[21] = tested on: KM12 colon
[22] = tested on: LOX IMVI melanoma
[23] = tested on: MALME-3M melanoma
[24] = tested on: MCF7 breast
[25] = tested on: MDA-MB-231 breast
[26] = tested on: MDA-MB-435
[27] = tested on: MOLT-4 leukemia
[28] = tested on: NCI-H226 lung
[29] = tested on: NCI-H23 lung
[30] = tested on: NCI-H460 lung
[31] = tested on: NCI-H522 lung
[32] = tested on: NCI/ADR-RES ovarian
[33] = tested on: OVCAR-3 ovarian
[34] = tested on: OVCAR-4 ovarian
[35] = tested on: OVCAR-5 ovarian
[36] = tested on: OVCAR-8 ovarian
[37] = tested on: PC-3 prostate
[38] = tested on: RPMI-8226 leukemia
[39] = tested on: RXF 393 renal
[40] = tested on: SF-268 CNS
[41] = tested on: SF-295 CNS
[42] = tested on: SF-539 CNS
[43] = tested on: SK-MEL-2 melanoma
[44] = tested on: SK-MEL-28 melanoma
[45] = tested on: SK-MEL-5 melanoma
[46] = tested on: SK-OV-3 ovarian
[47] = tested on: SN12C renal
[48] = tested on: SNB-19 CNS
[49] = tested on: SNB-75 CNS
[50] = tested on: SR leukemia
[51] = tested on: SW-620 colon
[52] = tested on: T-47D breast
[53] = tested on: TK-10 renal
[54] = tested on: U251 CNS
[55] = tested on: UACC-257 melanoma
[56] = tested on: UACC-62 melanoma
[57] = tested on: UO-31 renal

C[C@]12CC[C@H]3[C@@H](CC=C4C[C@@H](O)CC[C@@]43C)[C@@H]1CC[C@@H]2[C@](C)(O)CCc1cccnc1
GI50 [1]: 5.76 µM
TGI [1]: > 100 µM
GI50 [2]: 2740 nM
TGI [2]: 62.1 µM
GI50 [3]: 4.44 µM
TGI [3]: > 100 µM
GI50 [4]: 4.53 µM
TGI [4]: > 100 µM
GI50 [5]: 1690 nM
TGI [5]: 6.55 µM
GI50 [6]: 7.1 µM
TGI [6]: > 100 µM
GI50 [7]: 4.1 µM
TGI [7]: > 100 µM
GI50 [8]: 3.16 µM
TGI [8]: > 100 µM
GI50 [9]: 3.48 µM
TGI [9]: > 100 µM
GI50 [10]: 1590 nM
TGI [10]: > 100 µM
GI50 [11]: 4.99 µM
TGI [11]: > 100 µM
GI50 [12]: 3.42 µM
TGI [12]: > 100 µM
GI50 [13]: 4.29 µM
TGI [13]: > 100 µM
GI50 [14]: 2420 nM
TGI [14]: 7.04 µM
GI50 [15]: 9.27 µM
TGI [15]: > 100 µM
GI50 [16]: 2110 nM
TGI [16]: > 100 µM
GI50 [17]: 3.41 µM
TGI [17]: > 100 µM
GI50 [18]: 4.6 µM
TGI [18]: > 100 µM
GI50 [19]: 6.37 µM
TGI [19]: > 100 µM
GI50 [20]: 2130 nM
TGI [20]: > 100 µM
GI50 [21]: 5.55 µM
TGI [21]: > 100 µM
GI50 [22]: 5.63 µM
TGI [22]: > 100 µM
GI50 [23]: 2570 nM
TGI [23]: 8.14 µM
GI50 [24]: 2280 nM
TGI [24]: > 100 µM
GI50 [25]: 6.39 µM
TGI [25]: > 100 µM
GI50 [26]: 4.6 µM
TGI [26]: > 100 µM
GI50 [27]: 2750 nM
TGI [27]: 24 µM
GI50 [28]: 3.7 µM
TGI [28]: 55 µM
GI50 [29]: 3.05 µM
TGI [29]: > 100 µM
GI50 [30]: 3.99 µM
TGI [30]: > 100 µM
GI50 [31]: 2090 nM
TGI [31]: 7.79 µM
GI50 [32]: 3.43 µM
TGI [32]: > 100 µM
GI50 [33]: 9.14 µM
TGI [33]: > 100 µM
GI50 [34]: 1250 nM
TGI [34]: > 100 µM
GI50 [35]: > 100 µM
TGI [35]: > 100 µM
GI50 [36]: 4.82 µM
TGI [36]: > 100 µM
GI50 [37]: 3.55 µM
TGI [37]: > 100 µM
GI50 [38]: 1880 nM
TGI [38]: 49.9 µM
GI50 [39]: 1940 nM
TGI [39]: 7.78 µM
GI50 [40]: 5.3 µM
TGI [40]: > 100 µM
GI50 [41]: 2210 nM
TGI [41]: 9.64 µM
GI50 [42]: 6.11 µM
TGI [42]: > 100 µM
GI50 [43]: 7.44 µM
TGI [43]: > 100 µM
GI50 [44]: 4.27 µM
TGI [44]: > 100 µM
GI50 [45]: 1010 nM
TGI [45]: 2600 nM
GI50 [46]: 6.49 µM
TGI [46]: > 100 µM
GI50 [47]: 47.1 µM
TGI [47]: > 100 µM
GI50 [48]: 6.77 µM
TGI [48]: > 100 µM
GI50 [49]: 2920 nM
TGI [49]: > 100 µM
GI50 [50]: 2950 nM
TGI [50]: > 100 µM
GI50 [51]: 5.49 µM
TGI [51]: > 100 µM
GI50 [52]: 2090 nM
TGI [52]: > 100 µM
GI50 [53]: 7.58 µM
TGI [53]: > 100 µM
GI50 [54]: 6.5 µM
TGI [54]: > 100 µM
GI50 [55]: 3.03 µM
TGI [55]: > 100 µM
GI50 [56]: 3.19 µM
TGI [56]: > 100 µM
GI50 [57]: 1970 nM
TGI [57]: > 100 µM
